In ChEMBL document CHEMBL1139224, “Discovery and metabolic stabilization of potent and selective 2-amino-N-(adamant-2-yl) acetamide 11beta-hydroxysteroid dehydrogenase type 1 inhibitors” (J Med Chem, 2007):

Key:
[1] = target: T1, 11-beta-hydroxysteroid dehydrogenase type 2 (Rattus norvegicus, UniProt P50233); assay: Inhibitory activity against rat 11beta-HSD2
T1 sequence (P50233 whole entry): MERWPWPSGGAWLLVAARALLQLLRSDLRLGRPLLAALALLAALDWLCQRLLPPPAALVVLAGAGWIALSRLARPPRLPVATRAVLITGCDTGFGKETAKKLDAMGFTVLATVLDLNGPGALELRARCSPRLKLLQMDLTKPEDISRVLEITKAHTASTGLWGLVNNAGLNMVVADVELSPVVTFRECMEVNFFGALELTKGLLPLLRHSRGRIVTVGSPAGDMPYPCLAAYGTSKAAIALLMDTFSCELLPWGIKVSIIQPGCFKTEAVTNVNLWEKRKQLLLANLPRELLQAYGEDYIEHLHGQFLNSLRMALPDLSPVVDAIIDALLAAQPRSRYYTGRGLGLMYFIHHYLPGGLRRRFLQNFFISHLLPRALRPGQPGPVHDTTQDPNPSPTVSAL

[2] = Volume of distribution in mouse at 10 mg/kg, iv; format: ADME, organism-based; design: dose 10 mg/kg, route intravenous; conditions: in vivo, read-out: Vdss
[3] = Intrinsic clearance in human liver microsomes at 1 uM; format: ADME, Microsome
[4] = Intrinsic clearance in rat liver microsomes at 1 uM; format: ADME, Microsome
[5] = Half life in mouse at 10 mg/kg, iv; format: ADME, organism-based; design: dose 10 mg/kg, route intravenous; conditions: in vivo
[6] = target: T2, 11-beta-hydroxysteroid dehydrogenase type 2 (Mus musculus, UniProt P51661); assay: Inhibitory activity against mouse 11beta-HSD2 by SPA
T2 sequence (P51661 whole entry): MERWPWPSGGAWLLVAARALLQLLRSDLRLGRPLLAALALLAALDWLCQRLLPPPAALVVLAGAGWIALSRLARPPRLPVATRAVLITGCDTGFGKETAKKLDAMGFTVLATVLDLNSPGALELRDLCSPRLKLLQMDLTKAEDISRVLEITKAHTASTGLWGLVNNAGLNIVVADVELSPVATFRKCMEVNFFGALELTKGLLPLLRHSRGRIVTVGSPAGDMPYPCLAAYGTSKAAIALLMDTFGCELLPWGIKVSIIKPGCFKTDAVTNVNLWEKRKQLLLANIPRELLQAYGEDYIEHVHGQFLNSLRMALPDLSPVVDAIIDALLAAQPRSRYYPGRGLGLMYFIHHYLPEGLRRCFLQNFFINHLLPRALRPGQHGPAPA

[7] = Oral bioavailability in mouse at 10 mg/kg, po; format: ADME, organism-based; conditions: in vivo
[8] = target: 11-beta-hydroxysteroid dehydrogenase 1 (Rattus norvegicus, UniProt P16232); assay: Inhibitory activity against rat 11beta-HSD1
Chain of 11-beta-hydroxysteroid dehydrogenase 1 (Rattus norvegicus, UniProt P16232) (P16232 whole entry): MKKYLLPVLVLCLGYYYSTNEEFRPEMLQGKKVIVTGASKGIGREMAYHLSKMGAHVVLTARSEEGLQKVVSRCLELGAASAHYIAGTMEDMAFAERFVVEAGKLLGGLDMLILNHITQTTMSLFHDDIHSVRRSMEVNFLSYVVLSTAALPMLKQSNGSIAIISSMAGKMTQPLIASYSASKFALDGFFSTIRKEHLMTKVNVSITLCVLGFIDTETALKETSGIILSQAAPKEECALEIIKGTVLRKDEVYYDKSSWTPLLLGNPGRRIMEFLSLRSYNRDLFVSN

[9] = target: 11-beta-hydroxysteroid dehydrogenase 1 (Mus musculus, UniProt P50172); assay: Inhibition of mouse 11beta-HSD1 expressed in Escherichia coli by SPA
Chain of 11-beta-hydroxysteroid dehydrogenase 1 (Mus musculus, UniProt P50172) (P50172 whole entry): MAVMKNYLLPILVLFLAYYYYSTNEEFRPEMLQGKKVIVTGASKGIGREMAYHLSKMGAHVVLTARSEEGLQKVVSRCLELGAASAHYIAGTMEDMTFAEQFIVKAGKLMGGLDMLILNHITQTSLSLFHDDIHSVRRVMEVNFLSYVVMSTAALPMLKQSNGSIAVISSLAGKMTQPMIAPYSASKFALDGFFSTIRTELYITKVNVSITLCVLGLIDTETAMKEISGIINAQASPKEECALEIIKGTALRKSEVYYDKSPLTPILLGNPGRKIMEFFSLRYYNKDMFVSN

[10] = Intrinsic clearance in mouse liver microsomes at 1 uM; format: ADME, Microsome
[11] = Half life in mouse at 10 mg/kg, po; format: ADME, organism-based; design: dose 10 mg/kg, route oral; conditions: in vivo
[12] = Plasma clearance in mouse at 10 mg/kg, iv; format: ADME, organism-based; design: dose 10 mg/kg, route intravenous
[13] = system: Mus musculus; assay: AUC in mouse at 10 mg/kg, po; format: ADME, organism-based, Plasma; design: dose 10 mg/kg, route oral; conditions: in vivo
[14] = target: T3, 11-beta-hydroxysteroid dehydrogenase type 2 (Homo sapiens, UniProt P80365); assay: Inhibitory activity against human 11beta-HSD2 by SPA
T3 sequence (P80365 whole entry): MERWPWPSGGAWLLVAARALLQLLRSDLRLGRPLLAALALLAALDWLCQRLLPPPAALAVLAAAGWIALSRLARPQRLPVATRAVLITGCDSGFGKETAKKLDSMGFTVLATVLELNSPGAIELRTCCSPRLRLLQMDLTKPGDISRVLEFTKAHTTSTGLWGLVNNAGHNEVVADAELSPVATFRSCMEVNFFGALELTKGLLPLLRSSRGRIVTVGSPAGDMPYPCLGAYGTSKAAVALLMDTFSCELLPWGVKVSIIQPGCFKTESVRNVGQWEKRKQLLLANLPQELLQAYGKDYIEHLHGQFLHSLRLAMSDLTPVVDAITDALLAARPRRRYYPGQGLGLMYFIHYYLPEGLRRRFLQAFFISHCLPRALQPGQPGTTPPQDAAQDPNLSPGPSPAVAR

[15] = target: T4, 11-beta-hydroxysteroid dehydrogenase 1 (Homo sapiens, UniProt P28845); assay: Inhibition of human 11beta-HSD1 expressed in HEK293 cells by FPIA; format: cell-based
T4 sequence (P28845 whole entry): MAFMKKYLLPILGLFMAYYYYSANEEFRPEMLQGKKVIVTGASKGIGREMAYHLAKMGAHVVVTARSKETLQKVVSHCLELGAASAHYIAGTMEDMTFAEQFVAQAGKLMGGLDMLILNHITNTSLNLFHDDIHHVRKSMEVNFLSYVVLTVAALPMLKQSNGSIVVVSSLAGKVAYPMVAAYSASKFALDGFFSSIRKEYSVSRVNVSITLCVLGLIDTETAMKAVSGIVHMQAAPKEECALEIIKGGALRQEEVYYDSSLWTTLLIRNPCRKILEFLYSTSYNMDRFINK

[16] = target: T4, 11-beta-hydroxysteroid dehydrogenase 1; assay: Inhibition of human 11beta-HSD1 expressed in Escherichia coli by SPA

CC(C(=O)N[C@H]1C2CC3CC1C[C@](O)(C3)C2)N1CC(Oc2ccccc2F)C1 (stereo partly drawn)
IC50 [1]: > 100000 nM
Vd [2]: 1.2 L/kg
CLint scaled at 1 µM [3]: < 16.7 mL/min/kg
CLint scaled at 1 µM [4]: 66.7 mL/min/kg
half-life [5]: 18 min
IC50 [6]: > 100000 nM
bioavailability [7]: 58%
Ki [8]: 52 nM
Ki [9]: 7 nM
CLint scaled at 1 µM [10]: 383 mL/min/kg
half-life [11]: 60 min
clearance [12]: 120 mL/min/kg
AUC [13]: 0.8 ug/hr.ml

CC(C(=O)N[C@H]1C2C[C@@]3(O)CC1C[C@@](O)(C2)C3)N1CCN(c2ccc(C(F)(F)F)cn2)CC1 (mixture of isomers)
CLint scaled at 1 µM [3]: < 16.7 mL/min/kg
Ki [9]: 4100 nM
CLint scaled at 1 µM [10]: < 100 mL/min/kg

CO[C@]12CC3CC(C1)[C@@H](NC(=O)C(C)N1CCN(c4ccc(C(F)(F)F)cn4)CC1)C(C3)C2 (mixture of isomers)
CLint scaled at 1 µM [3]: 50 mL/min/kg
Ki [9]: 18 nM
CLint scaled at 1 µM [10]: 183 mL/min/kg

CC(C)(C(=O)N[C@H]1C2C[C@@]3(O)CC1C[C@@](O)(C2)C3)N1CCN(c2ccc(C(F)(F)F)cn2)CC1
CLint scaled at 1 µM [3]: < 16.7 mL/min/kg
Ki [9]: 470 nM
CLint scaled at 1 µM [10]: 383 mL/min/kg

O=C(CN1CCN(c2ccc(C(F)(F)F)cn2)CC1)N[C@H]1C2CC3CC1C[C@@](F)(C3)C2
IC50 [14]: > 100000 nM
CLint scaled at 1 µM [3]: 233 mL/min/kg
IC50 [15]: 450 nM
IC50 [6]: > 100000 nM
Ki [9]: 110 nM
CLint scaled at 1 µM [10]: < 100 mL/min/kg
Ki [16]: 26 nM

CC(C(=O)N[C@H]1C2CC3CC1C[C@](O)(C3)C2)N1CCc2ccc3c(c2CC1)OCO3 (stereo partly drawn)
IC50 [14]: 62000 nM
IC50 [1]: > 100000 nM
Vd [2]: 2.7 L/kg
CLint scaled at 1 µM [3]: 33.3 mL/min/kg
IC50 [15]: 21 nM
CLint scaled at 1 µM [4]: 567 mL/min/kg
half-life [5]: 30 min
IC50 [6]: > 100000 nM
bioavailability [7]: 19%
Ki [8]: 13 nM
Ki [9]: 5 nM
CLint scaled at 1 µM [10]: 333 mL/min/kg
Ki [16]: 4 nM
half-life [11]: 252 min
clearance [12]: 155 mL/min/kg
AUC [13]: 0.2 ug/hr.ml

CC(C)(C(=O)N[C@H]1C2CC3CC1C[C@](O)(C3)C2)N1CCN(c2ccc(C(F)(F)F)cn2)CC1
IC50 [14]: > 100000 nM
CLint scaled at 1 µM [3]: 100 mL/min/kg
IC50 [6]: > 100000 nM
CLint scaled at 1 µM [10]: 2170 mL/min/kg

O=C(CN1CCN(c2ccc(C(F)(F)F)cn2)CC1)N[C@H]1C2CC3CC1C[C@@](O)(C3)C2
IC50 [14]: > 10000 nM
CLint scaled at 1 µM [3]: 183 mL/min/kg
IC50 [15]: > 15000 nM
IC50 [6]: > 100000 nM
Ki [9]: 300 nM
CLint scaled at 1 µM [10]: 1080 mL/min/kg
Ki [16]: 67 nM

N#Cc1cccnc1N1CCN(CC(=O)NC2C3CC4CC(C3)CC2C4)CC1 (stereo not drawn)
IC50 [14]: > 100000 nM
CLint scaled at 1 µM [3]: 1830 mL/min/kg
IC50 [15]: 260 nM
IC50 [6]: > 100000 nM
Ki [9]: 53 nM
CLint scaled at 1 µM [10]: 6330 mL/min/kg
Ki [16]: 14 nM

CC(C(=O)N[C@H]1C2C[C@@]3(O)CC1C[C@@](F)(C2)C3)N1CCN(c2ccc(C(F)(F)F)cn2)CC1 (mixture of isomers)
CLint scaled at 1 µM [3]: < 16.7 mL/min/kg
Ki [9]: 33 nM
CLint scaled at 1 µM [10]: 233 mL/min/kg

C[C@@H](C(=O)N[C@H]1C2CC3CC1C[C@](O)(C3)C2)N1CCN(c2ccc(C(F)(F)F)cn2)CC1 (stereo in doubt; (S)-22f)
IC50 [15]: 36 nM
Ki [9]: 260 nM
Ki [16]: 7 nM

C[C@@H](C(=O)N[C@H]1C2CC3CC1C[C@](O)(C3)C2)N1CCN(c2ccc(C(F)(F)F)cn2)CC1 (stereo in doubt; (R)-22f)
CLint scaled at 1 µM [3]: 16.7 mL/min/kg
IC50 [15]: 26 nM
Ki [9]: 5 nM
Ki [16]: 4 nM

C[C@H](C(=O)N[C@H]1C2CC3CC1C[C@](O)(C3)C2)N1CC[C@@H](F)C1
IC50 [14]: > 100000 nM
CLint scaled at 1 µM [3]: < 16.7 mL/min/kg
IC50 [15]: 180 nM
IC50 [6]: > 100000 nM
Ki [9]: 9 nM
CLint scaled at 1 µM [10]: < 100 mL/min/kg
Ki [16]: 12 nM

O=C(CN1CCN(c2ccc(C(F)(F)F)cn2)CC1)NC1C2CC3CC(C2)CC1C3 (stereo not drawn)
CLint scaled at 1 µM [3]: 167 mL/min/kg
Ki [9]: 51 nM
CLint scaled at 1 µM [10]: 2370 mL/min/kg

O=C(CN1CC[C@H](C(F)(F)F)C1)N[C@H]1C2CC3CC1C[C@](O)(C3)C2
IC50 [14]: > 100000 nM
IC50 [1]: > 100000 nM
CLint scaled at 1 µM [3]: < 16.7 mL/min/kg
IC50 [15]: 35 nM
CLint scaled at 1 µM [4]: 467 mL/min/kg
IC50 [6]: > 100000 nM
Ki [8]: 3 nM
Ki [9]: 2 nM
CLint scaled at 1 µM [10]: 1000 mL/min/kg
Ki [16]: 3 nM

O=C(CN1CCN(c2ccc(Cl)cc2)CC1)NC1C2CC3CC(C2)CC1C3 (stereo not drawn)
CLint scaled at 1 µM [3]: 583 mL/min/kg
Ki [9]: 21 nM
CLint scaled at 1 µM [10]: 1050 mL/min/kg

O=C(CN1CCN(c2ccc(C(F)(F)F)cn2)CC1)NC1C2CC3CC(C2)CC1(O)C3 (racemic)
IC50 [14]: > 100000 nM
CLint scaled at 1 µM [3]: 217 mL/min/kg
IC50 [15]: > 10000 nM
IC50 [6]: > 100000 nM
Ki [9]: 110 nM
CLint scaled at 1 µM [10]: 5130 mL/min/kg
Ki [16]: 180 nM

C[C@@H](C(=O)N[C@H]1C2CC3CC1C[C@](O)(C3)C2)N1CC[C@@H](F)C1
IC50 [14]: > 100000 nM
CLint scaled at 1 µM [3]: < 16.7 mL/min/kg
IC50 [15]: 450 nM
IC50 [6]: > 100000 nM
Ki [9]: 24 nM
CLint scaled at 1 µM [10]: < 100 mL/min/kg
Ki [16]: 21 nM

O=C(CN1CCN(c2ccc(C(F)(F)F)cn2)CC1)N[C@H]1C2CC3CC1C[C@](F)(C3)C2
IC50 [14]: > 20000 nM
CLint scaled at 1 µM [3]: 33.3 mL/min/kg
IC50 [15]: 550 nM
IC50 [6]: > 100000 nM
Ki [9]: 120 nM
CLint scaled at 1 µM [10]: 2270 mL/min/kg
Ki [16]: 32 nM

CC(C(=O)N[C@H]1C2C[C@]3(O)CC1C[C@](F)(C2)C3)N1CCN(c2ccc(C(F)(F)F)cn2)CC1 (mixture of isomers)
CLint scaled at 1 µM [3]: 16.7 mL/min/kg
Ki [9]: 910 nM
CLint scaled at 1 µM [10]: 933 mL/min/kg

CO[C@]12CC3C[C@](O)(CC(C1)C3NC(=O)C(C)(C)N1CCN(c3ccc(C(F)(F)F)cn3)CC1)C2 (stereo partly drawn)
CLint scaled at 1 µM [3]: < 16.7 mL/min/kg
Ki [9]: 180 nM
CLint scaled at 1 µM [10]: 1000 mL/min/kg
